In PMC6934184, “Selective DNA-PKcs inhibition extends the therapeutic index of localized radiotherapy and chemotherapy” (The Journal of Clinical Investigation, 2019):

Target: T1, PRKCG (PKC gamma) (Homo sapiens, UniProt P05129)
T1 construct: purchased Thermo Fisher Scientific (Life Technologies) SelectScreen
Experiment: SelectScreen Z'LYTE
Type: biochemical
In short: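 SelectScreen broad panel; activity (Z'LYTE, Adapta) plus binding formats. ATP: Km app for CSF1R Z'LYTE; 10 for CAMK1 Adapta. Readout = % per kinase.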

SMILES: CN(C(=O)CN1CCOCC1)c1ccc2sc3c(-c4cccc5c(=O)cc(N6CC7CCC(C6)O7)oc45)cccc3c2c1 [NU5455]
- inhibition at 1 µM: 7.6%
